Experiments:
[1] = molecular target: T1, human COX-2 (Homo sapiens, UniProt P35354); experiment: Inhibition of PGE2 release in COS cells stably transfected with human COX-2; format: cell-based; details: COS cells stably transfected with cDNA for human COX-2; PGE2 release by enzyme immunoassay; 1 hour preincubation; 30 μM arachidonic acid, 15 minutes
T1 construct: expressed in transfected cells
T1 sequence (P35354 18-604): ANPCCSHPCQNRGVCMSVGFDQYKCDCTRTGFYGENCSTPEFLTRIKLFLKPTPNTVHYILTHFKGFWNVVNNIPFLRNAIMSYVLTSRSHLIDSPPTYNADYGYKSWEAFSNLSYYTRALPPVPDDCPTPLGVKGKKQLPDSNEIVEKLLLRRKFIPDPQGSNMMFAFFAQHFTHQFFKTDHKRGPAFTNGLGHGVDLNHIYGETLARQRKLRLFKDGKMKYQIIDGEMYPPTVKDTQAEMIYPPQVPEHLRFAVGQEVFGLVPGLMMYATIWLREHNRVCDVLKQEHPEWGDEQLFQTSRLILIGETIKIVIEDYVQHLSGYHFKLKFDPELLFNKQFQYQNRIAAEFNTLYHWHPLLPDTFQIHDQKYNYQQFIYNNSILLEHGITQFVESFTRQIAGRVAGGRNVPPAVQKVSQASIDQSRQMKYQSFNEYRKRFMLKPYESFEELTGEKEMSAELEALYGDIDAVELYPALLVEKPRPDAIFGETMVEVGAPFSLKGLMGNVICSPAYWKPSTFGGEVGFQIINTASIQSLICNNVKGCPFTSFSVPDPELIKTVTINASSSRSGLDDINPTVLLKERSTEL
Procedure: (§1) Inhibitory activity against human COX-1 and COX-2 was assessed in COS cells which had been stably transfected with cDNA for human COX-1 and human COX-2. 24 Hours prior to experiment, COS cells were transferred from the 175 cm^2 flasks in which they were grown, onto 24-well cell culture plates using the following procedure. The incubation medium (Dulbecco's modified eagles medium (DMEM) supplemented with heat-inactivated foetal calf serum (10% v/v), penicillin (100 IU/ml), streptomycin (100 μg/ml) and geneticin (600 μg/ml)) was removed from a flask of confluent cells (1 flask at confluency contains approximately 1×10^7 cells). 10 ml of phosphate buffered saline (PBS) was added to the flask to wash the cells. Having discarded the PBS, cells were then rinsed in 10 ml trypsin for 20 seconds, after which the trypsin was removed and the flask placed in an incubator (37°) for 1-2 minutes until cells became detached from the flask. The flask was then removed from the incubator and cells resuspended in 10 ml of fresh incubation medium. The contents of the flask was transferred to a 250 ml sterile container and the volume of incubation medium subsequently made up to 100 ml. 1 ml cell suspension was pipetted into each well of 4×24-well cell culture plates. The plates were then placed in an incubator (37° C., 95% air/5% CO2) overnight. If more than 1 flask of cells were required, the cells from the individual flasks were combined before being dispensed into the 24-well plates.
(§2) Following the overnight incubation, the incubation medium was completely removed from the 24-well cell culture plates and replaced with 250 μl fresh DMEM (37° C.). The test compounds were made up to 250× the required test concentration in DMSO and were added to the wells in a volume of 1 μl. Plates were then mixed gently by swirling and then placed in an incubator for 1 hour (37° C., 95% air/5% CO2). […] Plates were then incubated for a further 15 minutes, after which the incubation medium was removed from each well of the plates and stored at −20° C., prior to determination of prostaglandin E2 (PGE2) levels using enzyme immunoassay. […] The selectivity ratio of inhibition of COX-1 versus COX-2 was calculated by comparing respective IC50 values.

[2] = molecular target: T2, human COX-1 (Homo sapiens, UniProt P23219); experiment: Inhibition of PGE2 release in COS cells stably transfected with human COX-1; format: cell-based; details: COS cells stably transfected with cDNA for human COX-1; PGE2 release by enzyme immunoassay; 1 hour preincubation; 30 μM arachidonic acid, 15 minutes
T2 construct: expressed in transfected cells
T2 sequence (P23219 24-599): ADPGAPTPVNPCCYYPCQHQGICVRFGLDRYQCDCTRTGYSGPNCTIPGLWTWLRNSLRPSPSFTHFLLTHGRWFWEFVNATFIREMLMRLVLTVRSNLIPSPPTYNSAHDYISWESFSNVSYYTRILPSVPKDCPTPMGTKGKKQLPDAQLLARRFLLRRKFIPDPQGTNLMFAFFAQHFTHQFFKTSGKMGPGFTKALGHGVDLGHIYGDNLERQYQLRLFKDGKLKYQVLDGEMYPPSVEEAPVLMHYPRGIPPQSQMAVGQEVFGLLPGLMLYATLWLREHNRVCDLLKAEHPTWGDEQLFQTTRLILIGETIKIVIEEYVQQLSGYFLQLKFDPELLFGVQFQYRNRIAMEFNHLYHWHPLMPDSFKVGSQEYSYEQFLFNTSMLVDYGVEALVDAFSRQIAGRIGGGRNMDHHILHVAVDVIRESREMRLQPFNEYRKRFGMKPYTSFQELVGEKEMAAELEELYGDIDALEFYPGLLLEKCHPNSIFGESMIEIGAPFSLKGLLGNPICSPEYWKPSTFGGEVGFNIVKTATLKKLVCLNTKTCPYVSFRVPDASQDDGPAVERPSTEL
Procedure: as §1, §2

SMILES	IC50 [1]	IC50 [2]
CS(=O)(=O)c1ccc(-c2cc(C(F)(F)F)nc(NCc3ccncc3)n2)cc1 [Example 1, 4-[4-(Methylsulfonyl)phenyl]-N-(pyridin-4-ylmethyl)-6-(trifluoromethyl)pyrimidin-2-amine]	1.3 nM	> 100000 nM
CS(=O)(=O)c1ccc(-c2cc(C(F)(F)F)nc(NCc3cccnc3)n2)cc1 [Example 2, 4-[4-(Methylsulfonyl)phenyl]-N-(pyridin-3-ylmethyl)-6-(trifluoromethyl)pyrimidin-2-amine]	10.8 nM	> 100000 nM
CS(=O)(=O)c1ccc(-c2cc(C(F)(F)F)nc(NCc3ccccn3)n2)cc1 [Example 3, 4-[4-(Methylsulfonyl)phenyl]-N-(pyridin-2-ylmethyl)-6-(trifluoromethyl)pyrimidin-2-amine]	2.5 nM	> 100000 nM
CS(=O)(=O)c1ccc(-c2cc(C(F)(F)F)nc(NCc3ccccc3)n2)cc1 [Example 4, 4-[4-(Methylsulfonyl)phenyl]-N-(phenylmethyl)-6-(trifluoromethyl)-2-pyrimidinamine]	0.25 nM	> 100000 nM
COc1ccc(CNc2nc(-c3ccc(S(C)(=O)=O)cc3)cc(C(F)(F)F)n2)cc1 [Example 9, N-(4-methoxybenzyl)-4-[4-(methylsulfonyl)phenyl]-6-(trifluoromethyl)pyrimidin-2-amine]	34 nM	> 100000 nM
